pKi: −log10 of the molar value.

What all share (format): ADME
Series [1] concerns the target T1, Cytochrome P450 1A1 (Homo sapiens, UniProt P04798).
T1 sequence (P04798 whole entry): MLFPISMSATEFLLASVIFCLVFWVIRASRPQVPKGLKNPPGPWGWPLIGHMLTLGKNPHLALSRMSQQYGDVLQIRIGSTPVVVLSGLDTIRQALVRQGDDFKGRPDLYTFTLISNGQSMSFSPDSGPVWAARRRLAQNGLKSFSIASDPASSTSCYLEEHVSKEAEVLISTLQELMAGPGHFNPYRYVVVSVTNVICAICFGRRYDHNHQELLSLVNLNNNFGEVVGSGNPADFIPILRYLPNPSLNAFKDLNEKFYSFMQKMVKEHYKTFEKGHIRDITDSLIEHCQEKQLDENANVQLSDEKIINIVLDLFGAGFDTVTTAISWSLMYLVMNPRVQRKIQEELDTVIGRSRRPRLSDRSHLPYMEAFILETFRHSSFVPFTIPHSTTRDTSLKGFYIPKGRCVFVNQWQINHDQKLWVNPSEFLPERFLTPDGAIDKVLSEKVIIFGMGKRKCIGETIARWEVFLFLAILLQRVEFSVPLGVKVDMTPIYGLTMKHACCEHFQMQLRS
The series is described as follows: Mechanism based inhibition of human cytochrome P450 1A1 measured by 7-ethoxyresorufin O-deethylation (EROD).

Series [2] has as its target T2, Cytochrome P450 1A2 (Homo sapiens, UniProt P05177).
T2 sequence (P05177 whole entry): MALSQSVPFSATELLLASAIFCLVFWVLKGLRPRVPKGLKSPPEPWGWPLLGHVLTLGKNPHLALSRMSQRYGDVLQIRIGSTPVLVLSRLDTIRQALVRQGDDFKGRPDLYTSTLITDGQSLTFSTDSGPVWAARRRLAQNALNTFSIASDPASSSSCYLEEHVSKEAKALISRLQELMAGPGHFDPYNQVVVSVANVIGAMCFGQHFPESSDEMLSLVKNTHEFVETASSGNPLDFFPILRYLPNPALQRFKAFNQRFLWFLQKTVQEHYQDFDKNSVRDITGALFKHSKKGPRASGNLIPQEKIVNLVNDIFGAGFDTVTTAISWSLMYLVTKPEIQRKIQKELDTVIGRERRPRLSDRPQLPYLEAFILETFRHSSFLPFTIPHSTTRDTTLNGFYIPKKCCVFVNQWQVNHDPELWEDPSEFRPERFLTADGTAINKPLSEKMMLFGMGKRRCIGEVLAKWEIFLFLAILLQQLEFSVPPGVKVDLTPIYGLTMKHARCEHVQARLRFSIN
The series is described as follows: Mechanism based inhibition of human cytochrome P450 1A2 measured by 7-ethoxyresorufin O-deethylation (EROD).

Series [3] addresses T3, CYP1A1 (Rattus norvegicus, UniProt P00185).
T3 sequence (P00185 whole entry): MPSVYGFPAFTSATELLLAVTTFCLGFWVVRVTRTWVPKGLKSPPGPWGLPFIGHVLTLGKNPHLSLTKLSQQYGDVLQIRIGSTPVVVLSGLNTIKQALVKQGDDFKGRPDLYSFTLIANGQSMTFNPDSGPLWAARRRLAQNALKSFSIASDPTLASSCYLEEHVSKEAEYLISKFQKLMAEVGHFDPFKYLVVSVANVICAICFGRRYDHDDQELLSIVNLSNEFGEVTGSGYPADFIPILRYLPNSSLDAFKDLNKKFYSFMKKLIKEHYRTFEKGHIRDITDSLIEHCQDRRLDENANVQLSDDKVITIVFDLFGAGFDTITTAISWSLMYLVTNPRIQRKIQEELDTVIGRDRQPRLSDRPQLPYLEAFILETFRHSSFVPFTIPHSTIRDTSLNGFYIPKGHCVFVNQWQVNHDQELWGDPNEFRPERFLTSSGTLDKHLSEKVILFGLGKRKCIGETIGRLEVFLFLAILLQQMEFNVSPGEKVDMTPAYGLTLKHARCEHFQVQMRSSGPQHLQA
The experiment in a line: (§1) Mechanism based inhibition of rat cytochrome P450 CYP1A1 measured by 7-ethoxyresorufin O-deethylation (EROD). The conditions noted are these: rat, probe 7-ethoxyresorufin (O-deethylation, EROD).

In series [4] the target is T4, Cytochrome P450 1A1 (Rattus norvegicus, UniProt P00185).
T4 sequence (P00185 whole entry): T3 sequence (P00185 whole entry)
Described as §1.

The target in series [5] is T5, CYP1A2 (Rattus norvegicus, UniProt P04799).
T5 sequence (P04799 whole entry): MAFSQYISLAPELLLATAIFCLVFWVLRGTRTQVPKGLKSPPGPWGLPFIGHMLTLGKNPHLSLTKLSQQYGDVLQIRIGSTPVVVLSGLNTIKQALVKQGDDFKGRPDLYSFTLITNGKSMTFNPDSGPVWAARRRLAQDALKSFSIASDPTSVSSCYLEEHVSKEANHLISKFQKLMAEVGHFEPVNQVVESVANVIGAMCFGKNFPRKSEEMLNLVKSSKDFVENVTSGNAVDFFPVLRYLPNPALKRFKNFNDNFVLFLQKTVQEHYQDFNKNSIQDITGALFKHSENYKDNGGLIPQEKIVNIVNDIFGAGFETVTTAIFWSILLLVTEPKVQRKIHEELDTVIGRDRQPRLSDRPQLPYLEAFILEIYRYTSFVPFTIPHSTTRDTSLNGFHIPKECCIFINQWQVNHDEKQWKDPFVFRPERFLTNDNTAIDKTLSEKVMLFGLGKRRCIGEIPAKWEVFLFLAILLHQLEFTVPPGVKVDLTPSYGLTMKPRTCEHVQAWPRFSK
The experiment in a line: (§2) Mechanism based inhibition of rat cytochrome P450 CYP1A2. The conditions noted are these: rat.

Series [6] concerns the target T6, Cytochrome P450 1A2 (Rattus norvegicus, UniProt P04799).
T6 sequence (P04799 whole entry): T5 sequence (P04799 whole entry)
The series is described as §2.

Series [7] deals with T7, Cytochrome P450 1B1 (Homo sapiens, UniProt Q16678).
T7 sequence (Q16678 whole entry): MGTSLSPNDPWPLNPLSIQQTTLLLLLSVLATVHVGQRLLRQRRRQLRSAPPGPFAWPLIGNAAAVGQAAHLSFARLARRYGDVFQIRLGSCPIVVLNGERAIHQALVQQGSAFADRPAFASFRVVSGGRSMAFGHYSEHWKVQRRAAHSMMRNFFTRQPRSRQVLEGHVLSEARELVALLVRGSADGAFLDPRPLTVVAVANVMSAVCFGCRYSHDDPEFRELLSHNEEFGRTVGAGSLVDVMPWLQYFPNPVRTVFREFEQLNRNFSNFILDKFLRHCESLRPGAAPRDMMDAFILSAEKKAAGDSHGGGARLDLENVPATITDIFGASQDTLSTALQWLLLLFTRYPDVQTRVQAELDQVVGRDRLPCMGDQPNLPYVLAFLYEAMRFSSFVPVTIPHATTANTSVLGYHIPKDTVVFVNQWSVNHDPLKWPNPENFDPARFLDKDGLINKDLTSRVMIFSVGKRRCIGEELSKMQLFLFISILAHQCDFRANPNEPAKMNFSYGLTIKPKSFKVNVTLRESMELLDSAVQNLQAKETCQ
The experiment in a line: Mechanism based inhibition of human cytochrome P450 1B1 measured by 7-ethoxyresorufin O-deethylation (EROD).

The target of series [8] is T8, CYP2B1 (Rattus norvegicus, UniProt P00176).
T8 sequence (P00176 whole entry): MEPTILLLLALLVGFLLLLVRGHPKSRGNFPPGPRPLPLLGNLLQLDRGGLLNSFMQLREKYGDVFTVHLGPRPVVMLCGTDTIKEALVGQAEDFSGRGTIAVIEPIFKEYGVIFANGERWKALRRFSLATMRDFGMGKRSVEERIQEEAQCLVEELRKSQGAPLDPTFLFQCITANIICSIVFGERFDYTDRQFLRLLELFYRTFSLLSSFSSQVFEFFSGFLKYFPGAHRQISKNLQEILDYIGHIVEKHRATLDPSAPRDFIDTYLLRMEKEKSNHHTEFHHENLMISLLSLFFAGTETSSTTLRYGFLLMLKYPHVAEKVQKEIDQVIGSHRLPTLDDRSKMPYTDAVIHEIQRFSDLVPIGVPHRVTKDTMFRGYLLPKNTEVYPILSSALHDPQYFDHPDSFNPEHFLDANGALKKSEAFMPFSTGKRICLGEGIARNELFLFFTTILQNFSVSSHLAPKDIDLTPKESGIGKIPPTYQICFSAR
The experiment in a line: (§3) Mechanism based inhibition of rat cytochrome P450 CYP2B1 measured by 7-ethoxycoumarin O-deethylase activity. The note with it: rat, probe 7-ethoxycoumarin (O-deethylase activity).

Series [9] deals with T9, Cytochrome P450 2B1 (Rattus norvegicus, UniProt P00176).
T9 sequence (P00176 whole entry): T8 sequence (P00176 whole entry)
The series is described as §3.

Series [10] has as its target Cytochrome P450 2B10 (Mus musculus, UniProt P12791). The series is described as follows: Mechanism based inhibition of mouse cytochrome P450 CYP2B10.
Series [11] addresses Cytochrome P450 4A4 (Oryctolagus cuniculus, UniProt P10611). The series is described as follows: Mechanism based inhibition of rabbit cytochrome P450 CYP4A4.
Series [12] deals with T10, CYP2B4 (Oryctolagus cuniculus, UniProt P00178).
T10 sequence (P00178 whole entry): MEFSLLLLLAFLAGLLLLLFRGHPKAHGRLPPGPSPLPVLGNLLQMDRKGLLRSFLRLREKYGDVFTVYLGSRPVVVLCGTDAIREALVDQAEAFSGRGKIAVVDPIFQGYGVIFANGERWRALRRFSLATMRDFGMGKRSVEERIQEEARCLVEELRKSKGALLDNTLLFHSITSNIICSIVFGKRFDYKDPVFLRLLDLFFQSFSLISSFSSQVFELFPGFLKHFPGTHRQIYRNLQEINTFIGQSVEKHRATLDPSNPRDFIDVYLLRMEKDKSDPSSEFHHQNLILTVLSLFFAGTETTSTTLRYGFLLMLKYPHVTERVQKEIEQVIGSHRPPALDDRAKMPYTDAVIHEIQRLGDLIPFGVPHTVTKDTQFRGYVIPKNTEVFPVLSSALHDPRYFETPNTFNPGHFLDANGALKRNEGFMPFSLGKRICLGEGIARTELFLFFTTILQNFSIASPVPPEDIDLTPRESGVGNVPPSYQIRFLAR
The series is described as follows: (§4) Mechanism based inhibition of rabbit cytochrome P450 CYP2B4. The conditions noted are these: rabbit.

Series [13] has as its target T11, Cytochrome P450 2B4 (Oryctolagus cuniculus, UniProt P00178).
T11 sequence (P00178 whole entry): T10 sequence (P00178 whole entry)
The description is as §4.

For series [14], the target named is T8, CYP2B1. The series is described as follows: (§5) Mechanism based inhibition of rat cytochrome P450 CYP2B1. The conditions noted are these: rat.
The target of series [15] is T9, Cytochrome P450 2B1. Described as §5.

Chain of Cytochrome P450 4A4 (P10611 whole entry): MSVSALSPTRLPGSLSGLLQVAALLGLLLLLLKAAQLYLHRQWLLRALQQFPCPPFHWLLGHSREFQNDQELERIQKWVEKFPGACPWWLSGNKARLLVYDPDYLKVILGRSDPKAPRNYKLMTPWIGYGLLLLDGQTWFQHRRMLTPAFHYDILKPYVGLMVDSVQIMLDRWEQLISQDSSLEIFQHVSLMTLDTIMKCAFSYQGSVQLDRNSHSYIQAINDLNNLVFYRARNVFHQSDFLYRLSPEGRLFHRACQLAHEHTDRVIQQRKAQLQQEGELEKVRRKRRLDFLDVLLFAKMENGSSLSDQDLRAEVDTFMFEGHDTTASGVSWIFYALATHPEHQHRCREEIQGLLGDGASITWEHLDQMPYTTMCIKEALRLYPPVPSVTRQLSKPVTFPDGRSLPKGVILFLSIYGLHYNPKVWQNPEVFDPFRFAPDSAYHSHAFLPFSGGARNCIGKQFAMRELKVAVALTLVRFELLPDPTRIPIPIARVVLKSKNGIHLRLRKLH
Chain of Cytochrome P450 2B10 (P12791 whole entry): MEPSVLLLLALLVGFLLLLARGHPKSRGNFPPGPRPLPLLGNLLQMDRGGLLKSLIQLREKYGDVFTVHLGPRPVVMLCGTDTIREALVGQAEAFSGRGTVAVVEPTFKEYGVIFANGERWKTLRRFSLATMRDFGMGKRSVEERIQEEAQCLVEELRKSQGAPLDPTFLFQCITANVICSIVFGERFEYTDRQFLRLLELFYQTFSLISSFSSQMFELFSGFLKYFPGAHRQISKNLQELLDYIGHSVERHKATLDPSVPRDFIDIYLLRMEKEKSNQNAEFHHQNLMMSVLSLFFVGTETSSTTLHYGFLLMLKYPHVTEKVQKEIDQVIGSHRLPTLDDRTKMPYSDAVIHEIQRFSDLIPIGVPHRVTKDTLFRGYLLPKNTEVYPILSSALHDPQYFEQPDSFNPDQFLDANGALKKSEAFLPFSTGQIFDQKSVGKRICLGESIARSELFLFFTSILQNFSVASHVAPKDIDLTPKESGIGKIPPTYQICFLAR

Broadly, the kinact is the maximal first-order rate at which the target is inactivated. As usually defined, the pKi is the negative decadic logarithm of the Ki, by convention in mol/L. A low value points to a large Ki. Turning to `CC#Cc1ccc2c(ccc3ccccc32)c1`, the mechanism based inhibition result in [1] and in [2] was “Cytochrome P450 mechanistic inhibitor: PMID 9760279” in each case. In addition, the kinact in [3] and in series [5] was 0.005 s⁻¹ in each case. Moreover, the negative logarithm of the Ki (pKi) in series [4] was 8.00; in series [6] it was 7.52.

On to `C#Cc1ccc2ccccc2c1`, for which the mechanism based inhibition entry in series [1], in series [2] and in series [7] was “Cytochrome P450 mechanistic inhibitor: PMID 9760279” in each case. In addition, the maximal inactivation rate constant (kinact) in [8] is 0.0138 s⁻¹. The pKi in series [9] is 7.10.

As for `Cc1c(N)c(C)c([N+](=O)[O-])c(C(C)(C)C)c1[N+](=O)[O-]`, the mechanism based inhibition entry in [10] is listed as “Cytochrome P450 mechanistic inhibitor: PMID 9172959”.

Take `C#CCCCC(O)CCCCCCCCCCC(=O)O` (configuration not stated): the mechanism based inhibition entry in series [11] is “Cytochrome P450 mechanistic inhibitor: PMID 9168258”.

As for `Cn1c2ccccc2c2ccccc21`, the kinact is 0.0035 s⁻¹ in [12] and 0.0233 s⁻¹ in series [14]. The pKi is 4.64 in series [13] and 5.28 in series [15].

The values are drawn from ChEMBL document CHEMBL1743341, “Cytochrome p450 enzymes mechanism based inhibitors: common sub-structures and reactivity” (Curr Drug Metab, 2005).
